Series [1] has as its target T1, LmrR (Lactococcus cremoris, UniProt A2RI36).
T1 construct: gene llmg_0323; full-length, synthetic codon-optimised gene in pET28b (NcoI/XhoI), C-terminal His6-tag kept, E. coli BL21(DE3), homodimer
The series can be described thus: SPR (Biacore […], LmrR on NTA chip), kinetic […] Langmuir fit. Particulars: pH 7.4, 25 C, 150 mM NaCl, 50 uM EDTA, 0.005% P-20; dimeric central pore, 1:1 stoichiometry. Type of series: binding. (Surface plasmon resonance follows binding to a sensor surface in real time, without labels.)

The target of series [2] is T1, LmrR. The series can be described thus: SPR (Biacore […], LmrR on NTA chip), equilibrium one-site fit. Type of series: binding. Conditions: pH 7.4, 25 C, 150 mM NaCl, 50 uM EDTA, 0.005% P-20; dimeric central pore, 1:1 stoichiometry.
Series [3] concerns the target T2, LmrR (Lactococcus lactis, UniProt A2RI36 1-116).
T2 sequence: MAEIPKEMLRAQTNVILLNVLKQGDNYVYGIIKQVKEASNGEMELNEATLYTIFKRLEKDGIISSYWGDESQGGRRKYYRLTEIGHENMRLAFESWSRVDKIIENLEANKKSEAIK
In words: NMR; 1H-13C HMQC titration, Ile d1 CSPs; low-field shift of Ile-62 d1 13C; SPR: 10 mM HEPES pH 7.4, 150 mM NaCl, 50 uM EDTA, 0.005% surfactant P-20, 25 C (described for compounds); NMR: 10 mM NaPi pH 6.8, 100 mM NaCl, 298 K.

Series [4] addresses T2, LmrR. In words: SPR; LmrR immobilised on NTA chip; 1:1 Langmuir global fit; text states only 'μM affinity', number in figure; SPR: 10 mM HEPES pH 7.4, 150 mM NaCl, 50 uM EDTA, 0.005% surfactant P-20, 25 C (described for compounds); NMR: 10 mM NaPi pH 6.8, 100 mM NaCl, 298 K.

Consider 5 molecules from article PMC4235314 (Scientific Reports, 2014).

For `CCOc1ccc(-c2nc3ccc(-c4nc5ccc(N6CCN(C)CC6)cc5[nH]4)cc3[nH]2)cc1` [Hoechst 33342], the KD entry at LmrR [1] is reported as “SPR analyses indicated that these compounds bind to LmrR with various affinities”.
In the case of `COc1cccc2c1C(=O)c1c(O)c3c(c(O)c1C2=O)C[C@@](O)(C(C)=O)C[C@@H]3O[C@H]1C[C@H](N)[C@H](O)[C@H](C)O1` [daunomycin], the KD result at LmrR [2] is “The KD values for H33342 and daunomycin were consistent with those previously reported”.
Same read-out and setting: as for `CC[n+]1c(-c2ccccc2)c2cc(N)ccc2c2ccc(N)cc21` [ethidium], the entry is “SPR analyses indicated that these compounds bind to LmrR with various affinities”; as for `CCN=c1cc2oc3cc(NCC)c(C)cc3c(-c3ccccc3C(=O)OCC)c-2cc1C` [rhodamine 6G], “SPR analyses indicated that these compounds bind to LmrR with various affinities”.

B1: lmrCD oligo (33-bp promoter fragment) (dsDNA)
DNA 1: CAATTTAATGTAAAGTAGTTTACATTATTTAAC
DNA 2: GTTAAATAATGTAAACTACTTTACATTAAATTG
As to B1, the binding result in the series with LmrR [3] and with LmrR [4] was “binds” throughout.
